PubChem BioAssay (NCI)
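Test compounds were applied to cells in 96-well plates for 48 hours at 5 doses. TGI: total growth inhibition.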

Experiments:
Assay in all cases: DTP human tumour cell line panel, 48 h
K-562 leukemia = test system: K-562 leukemia
CAKI-1 renal = test system: CAKI-1 renal
A549 NSCLC = test system: A549 NSCLC
NCI-H226 lung = test system: NCI-H226 lung
SK-MEL-28 melanoma = test system: SK-MEL-28 melanoma
SK-MEL-5 melanoma = test system: SK-MEL-5 melanoma
HCT-15 colon = test system: HCT-15 colon
SF-295 CNS = test system: SF-295 CNS
786-0 renal = test system: 786-0 renal
T-47D breast = test system: T-47D breast

SMILES	TGI (K-562 leukemia) [µM]	TGI (CAKI-1 renal) [µM]	TGI (A549 NSCLC) [µM]	TGI (NCI-H226 lung) [µM]	TGI (SK-MEL-28 melanoma) [µM]	TGI (SK-MEL-5 melanoma) [µM]	TGI (HCT-15 colon) [µM]	TGI (SF-295 CNS) [µM]	TGI (786-0 renal) [µM]	TGI (T-47D breast) [µM]
CCN1CC2(CO)CCC(OC)C34C5CC6C(OC)CC(O)(C5C6OC)C(O)(C(OC)C23)C14 (stereo not drawn)	> 375	> 375	> 375	> 375	> 375	> 211	> 375	> 375		
COC(=O)C1=C(C(=O)OC)SC2(S1)C(C(=O)OC)=C(C(=O)OC)Sc1c2ssc1=O	2.86	2.93	31	2.97	3.26	2.59	1.57	27.6	1.21	
O/N=C1/C(=C/c2ccc(Br)cc2)CCCC1C(NO)c1ccc(Br)cc1 (stereo not drawn)	> 100		32.1		34.4		31.8	30.4	32.9	
CC(C)c1cccc(C(C)C)c1NC(=O)/C(Cc1nc2ccc(Cl)cc2[nH]c1=O)=N\NC(=O)C[N+](C)(C)C	> 100	> 100	> 100		> 100	> 100		> 100	> 100	
CC(=O)Nc1ccc(S(=O)(=O)Nc2cnc3ccccc3n2)cc1	> 100	> 100	> 100	> 100	> 100	> 100	> 100	> 100	> 100	
O=C1C(Nc2ccc(S(=O)(=O)Nc3cnc4ccccc4n3)cc2)=CC(=Nc2ccc(S(=O)(=O)Nc3cnc4ccccc4n3)cc2)c2ccccc21	> 74.9	31.2	38	43.7	33	31.5	33	30.3	31.6	
O=C(Cn1cc(I)c(C(=O)NCC(O)CO)n1)NCC(O)CO (stereo not drawn)	> 100		> 100	> 100	> 100		> 100	> 100	> 100	
Cc1cc2nc3c(C)c4ccccc4c(C)n3c2cc1C	> 10	> 10	> 10		9	> 10	6.14	> 10	6.62	> 10
Cc1ccc(C2=C(c3ccccc3)C(O)(c3ccccc3)C(c3ccccc3)=C2c2ccc(C)cc2)cc1	> 100		> 100	> 100	> 100	> 100	> 100	> 100	> 100	
Nc1nc(Cl)cc(OCC2(CO)CCCCC2)n1			> 100	> 100	> 100	> 100	> 100	> 100	> 100	
COc1ccc(/C=N/NC(=O)NCCNCCO)cc1	> 100	> 100	> 100	> 100	> 100	> 100	> 100	> 100	> 100	
CC(C)C(N=C1CC2CCC1(C(=O)Nc1ccccc1O)C2(C)C)c1ccccc1 (stereo not drawn)	> 10	> 10	> 10	> 10	> 10	> 10	> 10	> 10	> 10	
CC(=O)O[C@H]1C(=O)[C@@]2(C)C(C(OC(=O)c3ccccc3)[C@]3(O)CC(OC(=O)C(O)C(NC(=O)c4cccc(Cl)c4)c4ccccc4)C(C)=C1C3(C)C)[C@]1(OC(C)=O)CO[C@@H]1C[C@@H]2O (stereo partly drawn)	> 10	> 10	> 10	> 10		6.22	> 10	> 10	> 10	
O=c1oc2c(Cl)cc(Cl)cc2cc1-c1cn2c(n1)sc1ccccc12	53.3	> 100	> 100		> 100	> 100	> 100	> 100	> 100	> 100
c1ccc(C2SCc3nc4ccccc4n32)cc1 (stereo not drawn)	> 100	> 100	> 100	> 100	> 100	56.4	> 100	> 100	> 100	
C#CCN(Cc1ccc2nc(-c3ccccc3)c(Cl)nc2c1)c1ccc(Cl)c(Cl)c1	> 100	> 100	> 100		> 100	> 100	> 100	> 100	> 100	
N#Cc1cc([N+](=O)[O-])ccc1NC(=O)C(=O)Nn1c(=S)[nH]c2ccccc2c1=O	> 100	> 100	> 100	> 100	> 100	> 100	> 100	> 100	> 100	
CCN(CC)CCNC(=O)C1COc2ccc(-c3cc(=O)c4ccccc4o3)cc2O1 (stereo not drawn)	49	43.3	49.8	31.3	33.4	35.9	31.8	39.3		
